Results on 5 compounds are retold here after US20260231945A1, “NEMATICIDAL COMPOUNDS, THEIR COMPOSITION AND USE THEREOF” (priority 2023, published 2026).

The nature of data set [1]: Stability studies: storage at room temperature and under accelerated storage condition (ATS), purity estimated by HPLC. In kind it is physicochemical. As to conditions: properly packed material; for purity estimated by HPLC, Day 14 Condition 54° C. ± 2° C. / purity estimated by HPLC, Day Zero Condition 54° C. ± 2° C.: 54° C. ± 2° C. (accelerated storage). The source says: The properly packed material was subjected to the conditions mentioned in the table below (Table 5).

The subject of data set [2] is Root-knot nematodes Meloidogyne spp. juveniles (J2). Nature of the data set: whole plant or invertebrate. In kind it is in vivo. The following applies: 70-100 J2 juveniles, 22±2° C., 70±5% RH, dead/inactive counted at 24, 48, 72 and 96 hours (time of rating not stated); for mortality at 500 ppm: Meloidogyne. The method, then:
The compound to be tested (4 mg) was dissolved in 40 μl of DMSO to make 100,000 PPM concentration stock solution. […] The nematode suspension (250 μl) having 70-100 juveniles (J2) of Root-knot nematodes Meloidogyne spp. pipetted out to each cell of 24 well bioassay plate. Sterile water (1 ml) was pipetted out in fresh 2.5 ml Eppendorf micro-centrifuge tubes. The desired concentration (500 ppm) of the compound was prepared by adding stock solution in 2.5 ml Eppendorf micro-centrifuge tubes. For each treatment 4 replications were maintained. The bioassay plates were incubated at 22±2° C. and 70±5% RH in humidity chambers.

Usually mortality stands for the share of the test organisms that died.

As for `N=C(N)NCCC[C@H](/N=C/C=C/c1c(O)cccc1F)C(=O)O` [Example 3, (E)-N^2-[(2E)-3-(6-fluoro-2-hydroxyphenyl)prop-2-en-1-ylidene]-L-arginine], in data set [1], the “purity estimated by HPLC, Day 14 Condition 25° C. ± 2° C.” value is on record as 98.80; the “purity estimated by HPLC, Day 14 Condition 54° C. ± 2° C.” value is 98.79; the “purity estimated by HPLC, Day Zero Condition 25° C. ± 2° C.” value is 99.23; the “purity estimated by HPLC, Day Zero Condition 54° C. ± 2° C.” value is given as 99.10. This compound also had a mortality at 500 ppm in data set [2] of 50 to 69%.

Regarding `N=C(N)NCCC[C@H](/N=C/C=C/c1ccccc1)C(=O)O` [Example 9, (E)-N^2-[(2E)-3-phenylprop-2-en-1-ylidene]-L-arginine], in data set [1], the “purity estimated by HPLC, Day 14 Condition 25° C. ± 2° C.” value is recorded as 99.59; the “purity estimated by HPLC, Day 14 Condition 54° C. ± 2° C.” value is reported as 99.64; the “purity estimated by HPLC, Day Zero Condition 25° C. ± 2° C.” value was 99.60; the “purity estimated by HPLC, Day Zero Condition 54° C. ± 2° C.” value is recorded as 99.63. Besides, in data set [2], the mortality at 500 ppm lay within 70 to 100%.

As to `N#Cc1ccc(/C=C/C=N/[C@@H](CCCNC(=N)N)C(=O)O)cc1` [Example 20, (E)-N^2-[(2E)-3-(4-cyanophenyl)prop-2-en-1-ylidene]-L-arginine], in data set [1], the “purity estimated by HPLC, Day 14 Condition 25° C. ± 2° C.” value is reported as 99.50; the “purity estimated by HPLC, Day 14 Condition 54° C. ± 2° C.” value is 98.90; the “purity estimated by HPLC, Day Zero Condition 25° C. ± 2° C.” value was 99.55; the “purity estimated by HPLC, Day Zero Condition 54° C. ± 2° C.” value is reported as 99.43. The mortality at 500 ppm in data set [2] lay within 70 to 100%.

Regarding `N#Cc1ccc(C=CC=NC(CCCNC(=N)N)C(=O)O)c(C(F)(F)F)c1` (stereo not shown) [Example 39], in data set [1], the “purity estimated by HPLC, Day 14 Condition 25° C. ± 2° C.” value is recorded as 99.55; the “purity estimated by HPLC, Day 14 Condition 54° C. ± 2° C.” value is 99.60; the “purity estimated by HPLC, Day Zero Condition 25° C. ± 2° C.” value is recorded as 99.40; the “purity estimated by HPLC, Day Zero Condition 54° C. ± 2° C.” value was 99.40. The “% Mortality Rating” value in data set [2] (500 ppm) is “A (70-100)”.

As to `N=C(N)NCCC[C@H](/N=C/C=C/c1ccc2ccccc2c1)C(=O)O` [Example 24, (E)-N^2-[(2E)-3-(naphthalen-2-yl)prop-2-en-1-ylidene]-L-arginine], in data set [1], the “purity estimated by HPLC, Day 14 Condition 25° C. ± 2° C.” value is 98.85; the “purity estimated by HPLC, Day 14 Condition 54° C. ± 2° C.” value was 98.90; the “purity estimated by HPLC, Day Zero Condition 25° C. ± 2° C.” value is listed as 98.90; the “purity estimated by HPLC, Day Zero Condition 54° C. ± 2° C.” value is reported as 98.75. This compound had a mortality at 500 ppm in data set [2] of 50 to 69%.
